Measurements published in patent publication US10471046B2, “Method for treating, preventing, or reducing the risk of skin infection” (Melinta Subsidiary Corp., priority 2014, dated 2019).
Values after ≈ are worked out from the molar mass of the structure shown.

These molecules were tested on S. aureus (assay: Minimum inhibitory concentrations (MICs) for S. aureus of exemplary compounds (Table 2)). Conditions: Staphylococcus aureus, minimum inhibitory concentrations for S. aureus; read-out: MICs.
Type: cell-based
Source text: Exemplary compounds in accordance with the invention are listed in Table 2 with their minimum inhibitory concentrations (MICs) (μg/mL) for S. aureus:
Furthermore, the antibiotic compounds can be assayed for anti-proliferative or anti-infective properties on a cellular level. For example, where the target organism is a microorganism, the activity of compounds of interest can be assayed by growing the microorganisms of interest in media either containing or lacking the compound. Growth inhibition can be indicative that the molecule could be acting as a protein synthesis inhibitor. […] For this purpose, a panel of bacterial strains can be assembled to include a variety of target pathogenic species, some containing resistance mechanisms that have been characterized. Use of such a panel of organisms permits the determination of structure-activity relationships not only in regards to potency and spectrum, but also with a view to obviating resistance mechanisms. The assays can be performed in microtiter trays according to conventional methodologies as published by The National Committee for Clinical Laboratory Standards (NCCLS) guidelines (NCCLS. M7-A5-Methods for Dilution Antimicrobial Susceptibility Tests for Bacteria That Grow Aerobically; Approved Standard-Fifth Edition. NCCLS Document M100-S12/M7 (ISBN 1-56238-394-9)).
For `CC(=O)NC[C@H]1CN(c2ccc(-c3ccc(CS(=O)(=O)NCc4ccccc4)cc3)c(F)c2)C(=O)O1` [Compound 4170, N-{3-[4′-(Benzylsulfamoyl-methyl)-2-fluoro-biphenyl-4-yl]-2-oxo-oxazolidin-5-(S)-ylmethyl}-acetamide], the MIC was 128 µg/mL (≈ 250 µM). With `CC(=O)NC[C@H]1CN(c2ccc(-c3ccc(CNCc4c(C)[nH]c(=O)[nH]c4=O)cc3)c(F)c2)C(=O)O1` [Compound 4057, N-[3-(2-Fluoro-4′-{[(6-methyl-2,4-dioxo-1,2,3,4-tetrahydro-pyrimidin-5-ylmethyl)-amino]-methyl}-biphenyl-4-yl)-2-oxo-oxazolidin-5-(S)-ylmethyl]-acetamide] the MIC was 16 µg/mL (≈ 32.3 µM). `CSc1nnn(Cc2ccc(-c3ccc(N4C[C@H](CNC(C)=O)OC4=O)cc3F)cc2)n1` [Compound 1080, N-{3-[2-Fluoro-4′-(5-methylsulfanyl-tetrazol-2-ylmethyl)-biphenyl-4-yl]-2-oxo-oxazolidin-5-(S)-ylmethyl}-acetamide] gave an MIC of 0.25 µg/mL (≈ 0.548 µM). In the case of `CC(=O)NC[C@H]1CN(c2ccc(-c3ccc(CNCc4cncc5ccccc45)cc3)c(F)c2)C(=O)O1` [Compound 4060, N-[3-(2-Fluoro-4′-{[(isoquinolin-4-ylmethyl)-amino]-methyl}-biphenyl-4-yl)-2-oxo-oxazolidin-5-(S)-ylmethyl]-acetamide], the MIC is reported as 2 µg/mL (≈ 4.01 µM). With `CC(=O)NC[C@H]1CN(c2ccc(-c3ccc(CNCC(=O)N4CCN(C(=O)OC(C)(C)C)CC4)cc3)c(F)c2)C(=O)O1` [Compound 4315, 4-[2-({4′-[5-(S)-(Acetylamino-methyl)-2-oxo-oxazolidin-3-yl]-2′-fluoro-biphenyl-4-ylmethyl}-amino)-acetyl]-piperazine-1-carboxylic acid tert-butyl ester] the MIC was 4 µg/mL (≈ 6.85 µM). In the case of `CC(=O)NC[C@H]1CN(c2ccc(-c3ccc([C@H](O)CN4CCC4)cc3)c(F)c2)C(=O)O1` [Compound 1062, N-{3-[4′-(2-Azetidin-1-yl-1-(S)-hydroxy-ethyl)-2-fluoro-biphenyl-4-yl]-2-oxo-oxazolidin-5-(S)-ylmethyl}-acetamide], the MIC is reported as 8 µg/mL (≈ 18.7 µM). `CC(=O)NC[C@H]1CN(c2ccc(-c3ccc(C(C)NCc4ccncc4)cc3)c(F)c2)C(=O)O1` (mixture of isomers) [Compound 4232, N-[3-(2-Fluoro-4′-{1-(R/S)-[(pyridin-4-ylmethyl)-amino]-ethyl}-biphenyl-4-yl)-2-oxo-oxazolidin-5-(S)-ylmethyl]-acetamide] gave an MIC of 8 µg/mL. With `CC(=O)NC[C@H]1CN(c2ccc(-c3ccc(Cn4cccn4)cc3)c(F)c2)C(=O)O1` [Compound 1043, N-[3-(2-Fluoro-4′-pyrazol-1-ylmethyl-biphenyl-4-yl)-2-oxo-oxazolidin-5-(S)-ylmethyl]-acetamide] the MIC was 0.25 µg/mL (≈ 0.612 µM). `CC(=O)NC[C@H]1CN(c2ccc(-c3ccc(CNCc4ccc([N+](=O)[O-])o4)cc3)c(F)c2)C(=O)O1` [Compound 4069, N-[3-(2-Fluoro-4′-{[(5-nitro-furan-2-ylmethyl)-amino]-methyl}-biphenyl-4-yl)-2-oxo-oxazolidin-5-(S)-ylmethyl]-acetamide] was tested, and the MIC was 1 µg/mL (≈ 2.07 µM). `CC(=O)NC[C@H]1CN(c2ccc(-c3ccc(C(N)c4nn[nH]n4)cc3)c(F)c2)C(=O)O1` (mixture of isomers) [Compound 1040, N-(3-{4′-[Amino-(2H-tetrazol-5-(R/S)-yl)-methyl]-2-fluoro-biphenyl-4-yl}-2-oxo-oxazolidin-5-(S)-ylmethyl)-acetamide] was tested, and the MIC was 128 µg/mL (≈ 301 µM). `CC(=O)NC[C@H]1CN(c2ccc(-c3ccc(Cn4ccnc4N)cc3)c(F)c2)C(=O)O1` [Compound 1113, N-{3-[4′-(2-Amino-imidazol-1-ylmethyl)-2-fluoro-biphenyl-4-yl]-2-oxo-oxazolidin-5-(S)-ylmethyl}-acetamide] gave an MIC of 2 µg/mL (≈ 4.72 µM). `CC(=O)NC[C@H]1CN(c2ccc(-c3ccc(CNCC4CCOC4)cc3)c(F)c2)C(=O)O1` (stereo partly drawn) [Compound 4219, N-[3-(2-Fluoro-4′-{[(tetrahydro-furan-3-ylmethyl)-amino]-methyl}-biphenyl-4-yl)-2-oxo-oxazolidin-5-(S)-ylmethyl]-acetamide] showed an MIC of 8 µg/mL (≈ 18.1 µM). Molecule `CC(=O)NC[C@H]1CN(c2ccc(-c3ccc(CNCc4ccco4)c(F)c3F)c(F)c2)C(=O)O1` [Compound 4088, N-[2-Oxo-3-(2,2′,3′-trifluoro-4′-{[(furan-2-ylmethyl)-amino]-methyl}-biphenyl-4-yl)-oxazolidin-5-(S)-ylmethyl]-acetamide] has an MIC of 2 µg/mL (≈ 4.22 µM). For `CC(=O)NC[C@H]1CN(c2ccc(-c3ccc(CNCc4csnn4)c(F)c3)c(F)c2)C(=O)O1` [Compound 4164, N-[3-(2,3′-Difluoro-4′-{[([1,2,3]thiadiazol-4-ylmethyl)-amino]-methyl}-biphenyl-4-yl)-2-oxo-oxazolidin-5-(S)-ylmethyl]-acetamide], the MIC was 1 µg/mL (≈ 2.11 µM). Molecule `CC(=O)NC[C@H]1CN(c2ccc(-c3ccc(CNCc4ccc(S(N)(=O)=O)cc4)cc3)c(F)c2)C(=O)O1` [Compound 4093, N-(3-{2-Fluoro-4′-[(4-sulfamoyl-benzylamino)-methyl]-biphenyl-4-yl}-2-oxo-oxazolidin-5-(S)-ylmethyl)-acetamide] has an MIC of 8 µg/mL (≈ 15.2 µM). `CC(=O)NC[C@H]1CN(c2ccc(-c3ccc(CNCc4ccc5cccnc5c4)cc3)c(F)c2)C(=O)O1` [Compound 4138, N-[3-(2-Fluoro-4′-{[(quinolin-7-ylmethyl)-amino]-methyl}-biphenyl-4-yl)-2-oxo-oxazolidin-5-(S)-ylmethyl]-acetamide] gave an MIC of 1 µg/mL (≈ 2.01 µM). `CSC1=NCCN1Cc1ccc(-c2ccc(N3C[C@H](CNC(C)=O)OC3=O)cc2F)cc1` [Compound 1078, N-{3-[2-Fluoro-4′-(2-methylsulfanyl-4,5-dihydro-imidazol-1-ylmethyl)-biphenyl-4-yl]-2-oxo-oxazolidin-5-(S)-ylmethyl}-acetamide] showed an MIC of 2 µg/mL (≈ 4.38 µM). Work on `CC(=O)NC[C@H]1CN(c2ccc(-c3ccc(CNC(=O)[C@@H](N)Cc4ccccn4)cc3)c(F)c2)C(=O)O1` [Compound 4302, N-{4′-[5-(S)-(Acetylamino-methyl)-2-oxo-oxazolidin-3-yl]-2′-fluoro-biphenyl-4-ylmethyl}-2-(S)-amino-3-pyridin-2-yl-propionamide] yielded an MIC of 8 µg/mL (≈ 15.8 µM). In the case of `CC(=O)NC[C@H]1CN(c2ccc(-c3ccc(CNC(=O)[C@H](Cc4ccccn4)NC(=O)OC(C)(C)C)cc3)c(F)c2)C(=O)O1` [Compound 4303, [1-(S)-({4′-[5-(S)-(Acetylamino-methyl)-2-oxo-oxazolidin-3-yl]-2′-fluoro-biphenyl-4-ylmethyl}-carbamoyl)-2-pyridin-2-yl-ethyl]-carbamic acid tert-butyl ester], the MIC is reported as 8 µg/mL (≈ 13.2 µM).

Same assay, conditions: Staphylococcus aureus, read-out: MICs
`CC(=O)NC[C@H]1CN(c2ccc(-c3ccc(Cc4csc(NCC5CCCO5)n4)cc3)c(F)c2)C(=O)O1` (stereo partly drawn) [Compound 1020, N-[3-(2-Fluoro-4′-{2-[(tetrahydro-furan-2-ylmethyl)-amino]-thiazol-4-ylmethyl}-biphenyl-4-yl)-2-oxo-oxazolidin-5-(S)-ylmethyl]-acetamide] showed an MIC of 1 µg/mL (≈ 1.91 µM).

Same assay, conditions: minimum inhibitory concentrations for S. aureus
Molecule `CC(=O)NC[C@H]1CN(c2ccc(-c3ccc(C(CO)NCc4csnn4)cc3)c(F)c2)C(=O)O1` (mixture of isomers) [Compound 4172, N-[3-(2-Fluoro-4′-{2-hydroxy-1-[([1,2,3]thiadiazol-4-(R/S)-ylmethyl)-amino]-ethyl}-biphenyl-4-yl)-2-oxo-oxazolidin-5-(S)-ylmethyl]-acetamide] has an MICs of 8 µg/mL.
